Source: patent US20070248657A1, “Multi-compartment transdermal pain control device” (priority 2006, published 2007)
Like-named read-outs stand apart in the source and are kept apart here.

What was measured:
[1] = human

| SMILES | flux through human cadaver epidermis (clinical significance) (human, pH 8.6) | flux through human cadaver epidermis (clinical significance) (pH 5.6) | flux through human cadaver epidermis (clinical significance) (pH 7.3) | flux through human cadaver epidermis (clinical significance) (pH 8.6) | Cumulative Flux ([1]; 0 h) | Cumulative Flux ([1]; 3 h) | Cumulative Flux ([1]; 6 h) | Cumulative Flux ([1]; 9 h) | Cumulative Flux ([1]; 24 h) | Cumulative Flux ([1]; 48 h) | Cumulative Flux ([1]; 72 h) |
| --- | --- | --- | --- | --- | --- | --- | --- | --- | --- | --- | --- |
| COc1ccc2c(c1)[C@]13CCCC[C@@H]1[C@H](C2)N(C)CC3 [Dextromethorphan, dextromethorphan] | higher than at a pH of 7.3 | clinically insignificant | remains clinically insignificant |  |  |  |  |  |  |  |  |
| O=C(c1ccccc1)c1ccc2n1CCC2C(=O)O (stereo not shown) [Ketorolac, ketorolac tromethamine] |  | clinically significant | decreased to a clinically insignificant level | remains clinically insignificant | 0 μg/cm^2 | 24 μg/cm^2 | 7 μg/cm^2 | 11 μg/cm^2 | 100 μg/cm^2 | 412 μg/cm^2 | 726 μg/cm^2 |
